Where two headings read alike, the source gives them in different places.
Key:
[1] = tested on: NIH3T3 cell line transfected with the FGFR2 fusion gene; assay: Immunoblot (Western blot) analysis of downstream signal of FGFR2 fusion gene; format: cell-based, mouse; settings: final concentration of FGFR inhibitor 0.2 μM or 0.5 μM, FIG. 3
Procedure: First, the wild-type FGFR2 fusion gene or KD mutant FGFR2 fusion gene was transfected into the mouse fibroblast cell line NIH3T3 using the retrovirus, and the obtained cell line was cultured in a liquid culture medium. The cultured cell line was subjected to serum starvation, and then treated with a culture medium containing an FGFR inhibitor before extracting the total proteins. Herein, the protein encoded by FGFR2-BICC1 type2, the protein encoded by FGFR2-TXLNA and the protein encoded by FGFR2-KCTD1 are shown in SEQ ID NOs: 6, 2 and 4, respectively.
Next, the NIH3T3 cell line transfected with the FGFR2 fusion gene was subjected to Western blot analysis after adding the FGFR inhibitor to the cell line (the final concentration of the FGFR inhibitor: 0.2 μM or 0.5 μM) and extracting the total proteins similarly.

[2] = target: NIH3T3 cells transfected with FGFR2-TXLNA (Homo sapiens, UniProt P21802, DEL126-151/R152G); settings: final concentration 0.2 μM; soft agar; FIG. 5 and FIG. 6
NIH3T3 cells transfected with FGFR2-TXLNA, sequence (P21802 with tags, fused parts or gaps isoform P21802-22 DEL37-62/R63G): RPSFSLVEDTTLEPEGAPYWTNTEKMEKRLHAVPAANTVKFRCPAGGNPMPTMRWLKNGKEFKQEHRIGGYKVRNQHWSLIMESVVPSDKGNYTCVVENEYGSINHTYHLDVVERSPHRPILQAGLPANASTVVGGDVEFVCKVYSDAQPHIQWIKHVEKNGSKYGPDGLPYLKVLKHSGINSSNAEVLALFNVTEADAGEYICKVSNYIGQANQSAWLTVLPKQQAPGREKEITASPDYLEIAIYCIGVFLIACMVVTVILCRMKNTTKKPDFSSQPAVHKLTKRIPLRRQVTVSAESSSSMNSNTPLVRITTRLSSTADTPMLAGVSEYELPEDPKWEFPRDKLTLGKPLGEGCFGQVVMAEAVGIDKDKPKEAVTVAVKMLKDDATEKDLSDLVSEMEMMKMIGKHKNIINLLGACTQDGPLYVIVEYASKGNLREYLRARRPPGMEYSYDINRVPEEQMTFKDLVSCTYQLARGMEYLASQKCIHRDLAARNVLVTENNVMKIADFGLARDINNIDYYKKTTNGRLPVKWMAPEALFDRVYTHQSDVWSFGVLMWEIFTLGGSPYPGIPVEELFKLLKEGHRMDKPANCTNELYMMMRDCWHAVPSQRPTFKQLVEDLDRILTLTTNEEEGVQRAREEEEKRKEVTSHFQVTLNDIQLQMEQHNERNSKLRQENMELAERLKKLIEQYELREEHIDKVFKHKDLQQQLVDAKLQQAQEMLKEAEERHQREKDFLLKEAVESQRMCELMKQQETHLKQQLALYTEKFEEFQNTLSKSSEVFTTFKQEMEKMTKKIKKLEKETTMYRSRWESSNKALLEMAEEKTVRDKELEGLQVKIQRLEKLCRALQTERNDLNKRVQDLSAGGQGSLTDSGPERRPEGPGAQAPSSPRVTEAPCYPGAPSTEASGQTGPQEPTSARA
Procedure: (§1) Using the following apparatus, the activity of FGFR inhibitors on the transformation capacity of FGFR2 fusion polypeptide was evaluated.

[3] = target: NIH3T3 cells transfected with FGFR2-KCTD1 (Homo sapiens, UniProt P21802); settings: final concentration 0.2 μM; soft agar; FIG. 5 and FIG. 6
NIH3T3 cells transfected with FGFR2-KCTD1, sequence (P21802 with tags, fused parts or gaps isoform P21802-22): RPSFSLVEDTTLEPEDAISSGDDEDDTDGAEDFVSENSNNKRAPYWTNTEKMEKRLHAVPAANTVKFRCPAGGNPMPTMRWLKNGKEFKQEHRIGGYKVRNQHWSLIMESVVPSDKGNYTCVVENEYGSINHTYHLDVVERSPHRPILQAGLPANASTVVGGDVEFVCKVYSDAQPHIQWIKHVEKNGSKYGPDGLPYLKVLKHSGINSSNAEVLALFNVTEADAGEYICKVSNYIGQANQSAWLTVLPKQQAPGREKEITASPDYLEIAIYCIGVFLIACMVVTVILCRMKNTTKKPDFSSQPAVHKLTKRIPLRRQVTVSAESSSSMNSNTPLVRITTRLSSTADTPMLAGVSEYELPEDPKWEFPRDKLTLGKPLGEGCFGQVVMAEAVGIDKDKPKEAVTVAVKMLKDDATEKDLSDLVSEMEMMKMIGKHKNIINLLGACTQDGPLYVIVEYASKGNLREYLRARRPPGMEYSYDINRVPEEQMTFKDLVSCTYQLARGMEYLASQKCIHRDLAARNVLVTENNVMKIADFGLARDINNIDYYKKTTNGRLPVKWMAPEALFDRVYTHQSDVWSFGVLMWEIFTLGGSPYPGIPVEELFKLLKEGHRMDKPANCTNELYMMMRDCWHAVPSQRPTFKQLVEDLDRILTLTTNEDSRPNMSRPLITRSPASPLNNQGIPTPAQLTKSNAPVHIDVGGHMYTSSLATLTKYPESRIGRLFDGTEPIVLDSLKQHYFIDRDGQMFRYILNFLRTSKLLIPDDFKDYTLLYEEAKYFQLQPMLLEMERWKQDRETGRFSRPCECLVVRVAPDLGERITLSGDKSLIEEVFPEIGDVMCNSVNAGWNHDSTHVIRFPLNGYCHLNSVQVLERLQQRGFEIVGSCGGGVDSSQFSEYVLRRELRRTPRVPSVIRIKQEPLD
Procedure: as §1

[4] = target: NIH3T3 cell transfected with FGFR2-BICC1 type2 (Homo sapiens, UniProt P21802, DEL126-151/R152G)
NIH3T3 cell transfected with FGFR2-BICC1 type2, sequence (P21802 with tags, fused parts or gaps isoform P21802-22 DEL37-62/R63G): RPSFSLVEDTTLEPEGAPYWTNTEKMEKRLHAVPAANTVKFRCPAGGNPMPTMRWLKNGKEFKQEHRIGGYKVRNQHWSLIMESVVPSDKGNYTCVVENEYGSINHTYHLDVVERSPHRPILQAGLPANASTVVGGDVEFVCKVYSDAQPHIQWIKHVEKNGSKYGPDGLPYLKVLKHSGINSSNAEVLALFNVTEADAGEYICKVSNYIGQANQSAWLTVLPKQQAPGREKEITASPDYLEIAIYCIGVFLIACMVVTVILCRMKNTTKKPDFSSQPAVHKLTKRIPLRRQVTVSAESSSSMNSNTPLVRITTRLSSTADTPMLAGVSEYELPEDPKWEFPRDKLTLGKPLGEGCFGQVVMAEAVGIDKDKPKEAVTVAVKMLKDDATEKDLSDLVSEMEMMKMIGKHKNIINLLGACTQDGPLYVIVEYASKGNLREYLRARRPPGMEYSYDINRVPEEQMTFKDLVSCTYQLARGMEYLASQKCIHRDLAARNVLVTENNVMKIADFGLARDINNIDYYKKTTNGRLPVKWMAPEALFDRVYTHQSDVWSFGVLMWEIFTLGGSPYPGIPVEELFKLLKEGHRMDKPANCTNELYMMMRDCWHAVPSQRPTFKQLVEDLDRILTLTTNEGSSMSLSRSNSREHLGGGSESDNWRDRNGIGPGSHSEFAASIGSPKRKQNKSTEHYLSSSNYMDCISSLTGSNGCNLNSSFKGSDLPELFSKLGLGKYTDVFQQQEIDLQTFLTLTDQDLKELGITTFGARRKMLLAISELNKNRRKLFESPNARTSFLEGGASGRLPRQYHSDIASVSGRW
Procedure: as §1

[5] = Relative body weight in transplant model mice (safety of dosage); format: in vivo, mouse; settings: 6.25, 12.5, 25 and 50 mg/kg orally once a day; dosage judged as safe
Procedure: Based on the tumor volume on the first day of administration, the mice were grouped so that mean values of the tumor volume of the groups were nearly equal to each other. […]. The Compound A solution was continuously administered orally to the mice in the Compound A administration group once a day at a dosage of 20 mL/kg. On the other hand, only the solvent (water for injection) was similarly administered to the mice in the control group. The Administration was carried out to FGFR2-BICC1 type2 or FGFR2-KCTD1 transplant model mice for 7 days and to FGFR2-TXLNA transplant model mice for 11 days.
On the first day and the last day of the administration, body weight was measured for each mice in the control group and the Compound A administration group. The ratio of the body weight on the last day to the body weight on the first day (relative body weight: RBW) was calculated. When the RBW of the Compound A administration group/the RBW of the control group was 0.9 or more, the dosage was judged as safe. The corresponding dosage was 6.25, 12.5, 25 and 50 mg/kg.

anchorage independent growth [2]	anchorage independent growth [3]	anchorage independent growth ([4]; final concentration 0.2 μM, soft agar, FIG. 5 and FIG. 6)	anchorage independent growth ([4]; final concentration 1.0 μM, FIG. 7)	Compound	phosphorylation of FGFR [1]	phosphorylation of MAPK [1]	RBW of the Compound A administration group/the RBW of the control group [5]
significantly suppressed	significantly suppressed	little suppressed	suppressed	CCN1CCN(c2ccc(Nc3cc(N(C)C(=O)Nc4c(Cl)c(OC)cc(OC)c4Cl)ncn3)cc2)CC1 [BGJ398]	suppressed	significantly suppressed	–
–	–	–	–	CNC(=O)n1ccc2cc(Oc3ccnc(NC(=O)c4ccc(C5CCN(CCO)CC5)cc4)c3)c(OCCOC)cc21 [Compound A, 5-((2-(4-(1-(2-hydroxyethyl)piperidin-4-yl)benzamide)pyridin-4-yl)oxy)-6-(2-methoxyethoxy)-N-methyl-1H-indole-1-carboxamide 1.5 succinate]	suppressed	significantly suppressed	≥ 0.9
–	–	–	–	CCN(CC)CCCCNc1ncc2cc(-c3cc(OC)cc(OC)c3)c(NC(=O)NC(C)(C)C)nc2n1 [PD173074]	suppressed	significantly suppressed	–

Source: patent US12364690B2, “Therapeutic agent for bile duct cancer” (NATIONAL CANCER CENTER, priority 2015, dated 2025)
